Patent publication EP0620225B1, “Cephalosporin derivatives” (Basilea Pharmaceutica AG, priority 1993, dated 1994)
Values after ≈ are worked out from the molar mass of the structure shown.

Assays:
Acinetobacter sp.51-156 = test: Antibacterial spectrum (MIC), agar dilution; type: cell-based; details: SP.51156, read-out: MIC
Description: (§1) In vitro activity was determined by minimum inhibitory concentration in a microorganism spectum by the agar dilution method in Mueller Hinton agar.

C.freundii 43 = test: Antibacterial spectrum (MIC), agar dilution; type: cell-based; details: Citrobacter freundii, read-out: MIC
Description: as §1

C.freundii 902 = test: Antibacterial spectrum (MIC), agar dilution; type: cell-based; details: Citrobacter freundii, read-out: MIC
Description: as §1

E.cloacae 908R = test: Antibacterial spectrum (MIC), agar dilution; type: cell-based; details: Enterobacter cloacae, read-out: MIC
Description: as §1

E.cloacae 908SSi = test: Antibacterial spectrum (MIC), agar dilution; type: cell-based; details: Enterobacter cloacae, read-out: MIC
Description: as §1

E.coli 25922 = test: Antibacterial spectrum (MIC), agar dilution; type: cell-based; details: Escherichia coli, read-out: MIC
Description: as §1

E.faecalis 6 = test: Antibacterial spectrum (MIC), agar dilution; type: cell-based; details: Enterococcus faecalis, read-out: MIC
Description: as §1

H.influenzae 1 = test: Antibacterial spectrum (MIC), agar dilution; type: cell-based; details: Haemophilus influenzae, read-out: MIC
Description: as §1

K.pneumoniae 418 = test: Antibacterial spectrum (MIC), agar dilution; type: cell-based; details: Klebsiella pneumoniae, read-out: MIC
Description: as §1

L.monocytogenes BK23 = test: Antibacterial spectrum (MIC), agar dilution; type: cell-based; details: Listeria monocytogenes, read-out: MIC
Description: as §1

M.catarrhalis RA21 = test: Antibacterial spectrum (MIC), agar dilution; type: cell-based; details: Moraxella catarrhalis, read-out: MIC
Description: as §1

M.morganii 6H-137 = test: Antibacterial spectrum (MIC), agar dilution; type: cell-based; details: Morganella morganii, 6H137, read-out: MIC
Description: as §1

N.meningitidis 69480 = test: Antibacterial spectrum (MIC), agar dilution; type: cell-based; details: Neisseria meningitidis, read-out: MIC
Description: as §1

P.aeruginosa 27853 = test: Antibacterial spectrum (MIC), agar dilution; type: cell-based; details: Pseudomonas aeruginosa, read-out: MIC
Description: as §1

P.mirabilis 2117 = test: Antibacterial spectrum (MIC), agar dilution; type: cell-based; details: Proteus mirabilis, read-out: MIC
Description: as §1

P.vulgaris 1028 = test: Antibacterial spectrum (MIC), agar dilution; type: cell-based; details: Proteus vulgaris, read-out: MIC
Description: as §1

S.agalactiae QK44 = test: Antibacterial spectrum (MIC), agar dilution; type: cell-based; details: Streptococcus agalactiae, read-out: MIC
Description: as §1

S.aureus 6538 = test: Antibacterial spectrum (MIC), agar dilution; type: cell-based; details: Staphylococcus aureus, read-out: MIC
Description: as §1

S.aureus 734 MRSA = test: Antibacterial spectrum (MIC), agar dilution; type: cell-based; details: Staphylococcus aureus, read-out: MIC
Description: as §1

S.marcescens 69438 = test: Antibacterial spectrum (MIC), agar dilution; type: cell-based; details: Serratia marcescens, read-out: MIC
Description: as §1

S.pneumoniae Q19 = test: Antibacterial spectrum (MIC), agar dilution; type: cell-based; details: Streptococcus pneumoniae, read-out: MIC
Description: as §1

S.pyogenes B15 = test: Antibacterial spectrum (MIC), agar dilution; type: cell-based; details: Streptococcus pyogenes, read-out: MIC
Description: as §1

S.viridans group 016 = test: Antibacterial spectrum (MIC), agar dilution; type: cell-based; details: Streptococcus viridans, read-out: MIC
Description: as §1

X.maltophilia 1AC739 = test: Antibacterial spectrum (MIC), agar dilution; type: cell-based; details: Stenotrophomonas maltophilia, read-out: MIC
Description: as §1

S.aureus MSSA = test: In vitro activity against selected species (MIC50, MIC90, range); type: cell-based; details: Staphylococcus aureus, medium MHB (Mueller Hinton Broth)
S.pneumoniae PEN-R = test: as above; type: cell-based; details: Streptococcus pneumoniae; for MIC: MIC range
S.viridans group = test: as above; type: cell-based; details: Streptococcus viridans
E.faecalis [1] = test: as above; type: cell-based; details: Enterococcus faecalis, medium MHA; for MIC: MIC range
Description: as §1

S.aureus MRSA = test: as above; type: cell-based; details: Staphylococcus aureus, medium MHA (Mueller Hinton Agar) +NaCl; for MIC: MIC range
Description: as §1

E.faecium = test: In vitro activity against selected species (MIC50, range); type: cell-based; details: Enterococcus faecium, medium MHA
Description: as §1

M.catarrhalis = test: In vitro activity against selected species (MIC50, MIC90, range); type: cell-based; details: Moraxella catarrhalis, medium IsoB
Escherichia coli 25922 = test: Efficacy against systemic infections (septicemia) in mice; type: in vivo; details: 96 h, survival day 4
Description: (§2) Septicemia was induced in outbred Swiss albino mice (Jbm MoRo [specific pathogen free]; weight 16 to 20 g, Biomedical Research Laboratories, Füllinsdorf, Switzerland). Mice were infected by intraperitoneal injection of diluted overnight cultures of the test organisms. Bacterial challenge doses were 4-10 times the number of organisms required to kill 50% of untreated animals within 48 h. The test compounds were administered p.o. or s.c. 1 and 3 h after the bacterial challenge. To treat the infection with Pseudomonas aeruginosa BA an additional dose was given 5 h after challenge. Control and treatment groups at each dose were composed of five mice each. The 50% effective dose (ED50, in milligrams per kilogram) was calculated by probit analysis as described by Finney (Finney, D.J. 1978, Statistical method in biological assay, 3rd ed. Charles Griffin & Co., Ltd., London), from the survival rates on day 4 after infection.

S.aureus Smith = test: as above; type: in vivo; details: Staphylococcus aureus, 96 h, sc 1 and 3 h after challenge, survival day 4
Description: as §2

E.faecalis [2] = test: In vitro activity against selected species (MIC50, MIC90, range); type: cell-based; details: Enterococcus faecalis, medium IsoB
[3] = medium IsoB (Isosensitest Broth)

CON1CC/C(=C\C2=C(C(=O)O)N3C(=O)[C@@H](NC(=O)/C(=N\O)c4csc(N)n4)[C@H]3SC2)C1=O [G]
MIC (Acinetobacter sp.51-156): 8 µg/mL (≈ 16.2 µM) | MIC (C.freundii 43): 4 µg/mL (≈ 8.09 µM) | MIC (C.freundii 902): ≤ 0.06 µg/mL | MIC (E.cloacae 908R): 32 µg/mL (≈ 64.7 µM) | MIC (E.cloacae 908SSi): 0.25 µg/mL (≈ 0.506 µM) | MIC (E.coli 25922): ≤ 0.06 µg/mL | MIC (E.faecalis 6): 1 µg/mL (≈ 2.02 µM) | MIC (H.influenzae 1): 0.12 µg/mL (≈ 0.243 µM) | MIC (K.pneumoniae 418): ≤ 0.06 µg/mL | MIC (L.monocytogenes BK23): 2 µg/mL (≈ 4.04 µM) | MIC (M.catarrhalis RA21): 16 µg/mL (≈ 32.4 µM) | MIC (M.morganii 6H-137): ≤ 0.06 µg/mL | MIC (N.meningitidis 69480): ≤ 0.06 µg/mL | MIC (P.aeruginosa 27853): 32 µg/mL (≈ 64.7 µM) | MIC (P.mirabilis 2117): ≤ 0.06 µg/mL | MIC (P.vulgaris 1028): 2 µg/mL (≈ 4.04 µM) | MIC (S.agalactiae QK44): 0.25 µg/mL (≈ 0.506 µM) | MIC (S.aureus 6538): 0.5 µg/mL (≈ 1.01 µM) | MIC (S.aureus 734 MRSA): 16 µg/mL (≈ 32.4 µM) | MIC (S.marcescens 69438): 1 µg/mL (≈ 2.02 µM) | MIC (S.pneumoniae Q19): ≤ 0.06 µg/mL | MIC (S.pyogenes B15): ≤ 0.06 µg/mL | MIC (S.viridans group 016): 0.5 µg/mL (≈ 1.01 µM) | MIC (X.maltophilia 1AC739): > 32 µg/mL | MIC (S.aureus MSSA; MIC range): 1 to 2 µg/mL (≈ 2.02 to 4.04 µM) | MIC50 (S.aureus MSSA): 1 µg/mL (≈ 2.02 µM) | MIC90 (S.aureus MSSA): 1 µg/mL (≈ 2.02 µM) | MIC (S.pneumoniae PEN-R; [3]): 0.1 to 0.5 µg/mL (≈ 0.202 to 1.01 µM) | MIC (S.pneumoniae PEN-R; medium IsoB + 20% serum): 0.12 to 0.5 µg/mL | MIC50 (S.pneumoniae PEN-R; [3]): 0.25 µg/mL (≈ 0.506 µM) | MIC90 (S.pneumoniae PEN-R; [3]): 0.5 µg/mL (≈ 1.01 µM) | MIC50 (S.pneumoniae PEN-R; medium IsoB + 20% serum): 0.5 µg/mL | MIC50 (S.viridans group): 2 µg/mL (≈ 4.04 µM) | MIC90 (S.viridans group): 2 µg/mL (≈ 4.04 µM) | MIC (S.viridans group; MIC range): 0.12 to 8 µg/mL (≈ 0.243 to 16.2 µM) | MIC (E.faecalis [1]): 0.5 to 2 µg/mL (≈ 1.01 to 4.04 µM) | MIC50 (E.faecalis [1]): ≤ 0.5 µg/mL | MIC90 (E.faecalis [1]): 2 µg/mL (≈ 4.04 µM) | MIC (S.aureus MRSA): 8 to 16 µg/mL (≈ 16.2 to 32.4 µM) | MIC50 (S.aureus MRSA): 16 µg/mL (≈ 32.4 µM) | MIC90 (S.aureus MRSA): 16 µg/mL (≈ 32.4 µM) | MIC (E.faecium; MIC range): 1 to 8 µg/mL (≈ 2.02 to 16.2 µM) | MIC50 (E.faecium): 4 µg/mL (≈ 8.09 µM) | MIC (M.catarrhalis; MIC range): 1 to 32 µg/mL (≈ 2.02 to 64.7 µM) | MIC50 (M.catarrhalis): 4 µg/mL (≈ 8.09 µM) | MIC90 (M.catarrhalis): 16 µg/mL (≈ 32.4 µM) | ED50 (Escherichia coli 25922; Escherichia coli 25922, po (orally) 1 and 3 h after challenge): ~3 mg/kg | ED50 (Escherichia coli 25922; Escherichia coli, E.coli 25922, sc 1 and 3 h after challenge): < 0.1 mg/kg | ED50 (S.aureus Smith): < 1 mg/kg | MIC (E.faecalis [2]; MIC range): 0.25 to 2 µg/mL (≈ 0.506 to 4.04 µM) | MIC50 (E.faecalis [2]): 0.5 µg/mL (≈ 1.01 µM) | MIC90 (E.faecalis [2]): 2 µg/mL (≈ 4.04 µM)

Nc1nc(/C(=N/O)C(=O)N[C@@H]2C(=O)N3C(C(=O)O)=C(/C=C4\CCN(c5ccccc5)C4=O)CS[C@H]23)cs1 [H]
MIC (Acinetobacter sp.51-156): 32 µg/mL (≈ 59.2 µM) | MIC (C.freundii 43): 4 µg/mL (≈ 7.4 µM) | MIC (C.freundii 902): 0.5 µg/mL (≈ 0.925 µM) | MIC (E.cloacae 908R): 16 µg/mL (≈ 29.6 µM) | MIC (E.cloacae 908SSi): 0.5 µg/mL (≈ 0.925 µM) | MIC (E.coli 25922): 0.25 µg/mL (≈ 0.462 µM) | MIC (E.faecalis 6): 0.25 µg/mL (≈ 0.462 µM) | MIC (H.influenzae 1): 0.5 µg/mL (≈ 0.925 µM) | MIC (K.pneumoniae 418): 0.12 µg/mL (≈ 0.222 µM) | MIC (M.catarrhalis RA21): > 16 µg/mL | MIC (M.morganii 6H-137): ≤ 0.06 µg/mL | MIC (N.meningitidis 69480): 0.12 µg/mL (≈ 0.222 µM) | MIC (P.aeruginosa 27853): 32 µg/mL (≈ 59.2 µM) | MIC (P.mirabilis 2117): ≤ 0.06 µg/mL | MIC (P.vulgaris 1028): 2 µg/mL (≈ 3.7 µM) | MIC (S.agalactiae QK44): 0.25 µg/mL (≈ 0.462 µM) | MIC (S.aureus 6538): 0.5 µg/mL (≈ 0.925 µM) | MIC (S.aureus 734 MRSA): 8 µg/mL (≈ 14.8 µM) | MIC (S.marcescens 69438): 1 µg/mL (≈ 1.85 µM) | MIC (S.pneumoniae Q19): 0.12 µg/mL (≈ 0.222 µM) | MIC (S.pyogenes B15): ≤ 0.06 µg/mL | MIC (S.viridans group 016): 1 µg/mL (≈ 1.85 µM) | MIC (X.maltophilia 1AC739): > 32 µg/mL | MIC (E.faecalis [1]): 0.5 to 16 µg/mL (≈ 0.925 to 29.6 µM) | MIC50 (E.faecalis [1]): 1 µg/mL (≈ 1.85 µM) | MIC90 (E.faecalis [1]): 1 µg/mL (≈ 1.85 µM) | MIC (S.aureus MRSA): 16 to 32 µg/mL (≈ 29.6 to 59.2 µM) | MIC50 (S.aureus MRSA): 16 µg/mL (≈ 29.6 µM) | MIC90 (S.aureus MRSA): 16 µg/mL (≈ 29.6 µM) | ED50 (S.aureus Smith): < 0.5 mg/kg
